Test results as given in ChEMBL document CHEMBL4351024, “Steroidal N-Sulfonylimidates: Synthesis and biological evaluation in breast cancer cells” (Eur J Med Chem, 2019).
The source made the active and inactive calls. The rule behind the calls is not given here.

Key:
MCF7 = experiment: Antiproliferative activity against human MCF7 cells assessed as reduction in cell viability after 72 hrs by MTT assay; type: functional, cell-based
[1] = target: Serine/threonine-protein kinase mTOR (Homo sapiens) (UniProt P42345); experiment: Inhibition of mTOR phosphorylation in human MDA-MB-231 cells up to 50 uM measured after 48 hrs by Western blot analysis; type: cell-based
MDA-MB-231 [2] = experiment: Antiproliferative activity against human MDA-MB-231 cells assessed as reduction in cell viability after 72 hrs by MTT assay; type: functional, cell-based; conditions: MDA-MB-231, 72 h
MCF-10A [3] = experiment: Cytotoxicity against human MCF10A assessed as reduction in cell viability at 25 uM after 72 hrs by MTT assay; type: cell-based
MDA-MB-231 [4] = experiment: Effect on EGFR expression in human MDA-MB-231 cells up to 50 uM measured after 48 hrs by Westernblot analysis; type: functional, cell-based
[5] = target: Transcription factor p65 (Homo sapiens) (UniProt Q04206); experiment: Down regulation of NFkappaB p65 phosphorylation in human MDA-MB-231 cells up to 50 uM measured after 48 hrs by Western blot analysis; type: cell-based
[6] = Effect on RAS/RAF/MEK/ERK pathway in human MDA-MB-231 cells assessed as increase in ERK1/2 phosphorylation up to 50 uM measured after 48 hrs by Western blot analysis; type: cell-based
MDA-MB-231 [7] = experiment: Down regulation of slug levels in human MDA-MB-231 cells up to 50 uM measured after 48 hrs by Westernblot analysis; type: functional, cell-based
MCF-10A [8] = experiment: Cytotoxicity against human MCF10A assessed as reduction in cell viability up to 12 uM after 72 hrs by MTT assay; type: cell-based
MDA-MB-231 [9] = experiment: Downregulation of cyclin-D1 expression in human MDA-MB-231 cells up to 50 uM measured after 48 hrs by Westernblot analysis; type: functional, cell-based
[10] = Homo sapiens, MCF7, 72 h, read-out: IC50

Chain of Transcription factor p65 (Homo sapiens) (Q04206 whole entry): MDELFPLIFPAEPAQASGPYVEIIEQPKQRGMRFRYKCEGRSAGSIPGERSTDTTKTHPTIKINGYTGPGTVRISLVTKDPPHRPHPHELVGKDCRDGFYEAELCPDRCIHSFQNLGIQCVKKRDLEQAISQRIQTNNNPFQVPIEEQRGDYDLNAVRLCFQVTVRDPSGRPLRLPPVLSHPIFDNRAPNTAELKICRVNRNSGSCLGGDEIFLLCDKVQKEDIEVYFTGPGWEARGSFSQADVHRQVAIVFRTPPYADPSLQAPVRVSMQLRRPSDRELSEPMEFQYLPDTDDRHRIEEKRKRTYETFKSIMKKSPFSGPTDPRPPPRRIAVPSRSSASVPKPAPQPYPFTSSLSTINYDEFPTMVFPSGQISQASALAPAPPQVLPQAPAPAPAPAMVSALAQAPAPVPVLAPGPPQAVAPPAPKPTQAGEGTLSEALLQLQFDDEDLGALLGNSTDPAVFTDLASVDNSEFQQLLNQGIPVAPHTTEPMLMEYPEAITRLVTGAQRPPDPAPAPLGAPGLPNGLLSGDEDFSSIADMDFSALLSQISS

IC50 (MCF7; [10]) [µM] | Structure (SMILES) | also measured
22.4 | CCCO/C(C[C@]1(O)CC[C@H]2[C@@H]3CCC4=CC(=O)CC[C@]4(C)[C@H]3CC[C@@]21C)=N/S(=O)(=O)c1ccc(C)cc1 | 
9.9 | CCO/C(C[C@]1(O)CC[C@H]2[C@@H]3CCC4=CC(=O)CC[C@]4(C)[C@H]3CC[C@@]21C)=N/S(=O)(=O)c1ccc(C)cc1 | 
20 | COc1ccc2c(c1)CC[C@@H]1[C@@H]2CC[C@@]2(C)[C@H]1CC[C@]2(C/C(=N\S(=O)(=O)c1ccc(C)cc1)OC1CCCCC1)OC | 
12.2 | CCO/C(C[C@]1(O)CC[C@H]2[C@@H]3CCc4cc(OC(C)=O)ccc4[C@H]3CC[C@@]21C)=N/S(=O)(=O)c1ccc(C)cc1 | 
21.7 | COc1ccc2c(c1)CC[C@@H]1[C@@H]2CC[C@@]2(C)[C@H]1CC[C@]2(C/C(=N\S(=O)(=O)c1ccc(C)cc1)OCCC(C)C)OC | 
7 | CCO/C(C[C@]1(OC)CC[C@H]2[C@@H]3CCc4cc(OC)ccc4[C@H]3CC[C@@]21C)=N/S(=O)(=O)c1ccc(C)cc1 | 
11.4 | COc1ccc2c(c1)CC[C@@H]1[C@@H]2CC[C@@]2(C)[C@H]1CC[C@]2(C/C(=N\S(=O)(=O)c1ccc(C)cc1)OCCCCl)OC | 
5.6 | CCO/C(CC1=CC[C@H]2[C@@H]3CCc4cc(OC(C)=O)ccc4[C@H]3CC[C@]12C)=N/S(=O)(=O)c1ccc(C)cc1 | 

Further lines, the compound ahead of its results:

Structure (SMILES) | IC50 (MCF7; [10]) [µM] | also measured
COc1ccc2c(c1)CC[C@@H]1[C@@H]2CC[C@@]2(C)[C@H]1CC[C@@]2(O)CC(=O)NS(=O)(=O)c1ccc(C)cc1 |  | IC50 (MCF7; mcf7): Not Active
COc1ccc2c(c1)CC[C@@H]1[C@@H]2CC[C@@]2(C)[C@H]1CC[C@]2(C/C(=N\S(=O)(=O)c1ccc(C)cc1)OCC(C)C)OC | 8.5 | 
CCCO/C(C[C@]1(O)CC[C@H]2[C@@H]3CCc4cc(OC(C)=O)ccc4[C@H]3CC[C@@]21C)=N/S(=O)(=O)c1ccc(C)cc1 | 17.9 | 
CCO/C(C[C@]1(O)CC[C@H]2[C@@H]3CCc4cc(OS(=O)(=O)c5ccc(C)cc5)ccc4[C@H]3CC[C@@]21C)=N/S(=O)(=O)c1ccc(C)cc1 |  | IC50 (MCF7; mcf7): Not Active
COc1ccc2c(c1)CC[C@@H]1[C@@H]2CC[C@@]2(C)[C@H]1CC[C@]2(C/C(=N\S(=O)(=O)c1ccc(C)cc1)OCC(Cl)(Cl)Cl)OC | 22.2 | 
CCO/C(C[C@]1(O)CC[C@H]2[C@@H]3CCc4cc(OCc5ccccc5)ccc4[C@H]3CC[C@@]21C)=N/S(=O)(=O)c1ccc(C)cc1 |  | IC50 (MCF7; mcf7): Not Active
CCO/C(CC1=CC[C@H]2[C@@H]3CCc4cc(OC)ccc4[C@H]3CC[C@]12C)=N/S(=O)(=O)c1ccc(C)cc1 | 9.5 | 
CCO/C(C[C@]1(O)CC[C@H]2[C@@H]3CCc4cc(OC)ccc4[C@H]3CC[C@@]21C)=N/S(=O)(=O)c1ccc(C)cc1 | 11.8 | 
COc1ccc2c(c1)CC[C@@H]1[C@@H]2CC[C@@]2(C)[C@H]1CC[C@]2(C/C(=N\S(=O)(=O)c1ccc(C)cc1)OC(C)C)OC | 4.3 | inhibition [1]: inactive; IC50 (MDA-MB-231 [2]): 11.3 µM; Activity (MCF-10A [3]): Toxic; Activity (MDA-MB-231 [4]): inactive; Activity [5]: Active; Activity [6]: Active; Activity (MDA-MB-231 [7]): Active; Activity (MCF-10A [8]): Non-Toxic; Activity (MDA-MB-231 [9]): Active
Cc1ccc(S(=O)(=O)NC(=O)C[C@]2(O)CC[C@H]3[C@@H]4CCc5cc(O)ccc5[C@H]4CC[C@@]32C)cc1 |  | IC50 (MCF7; mcf7): Not Active
CCCCCCCO/C(C[C@]1(OC)CC[C@H]2[C@@H]3CCc4cc(OC)ccc4[C@H]3CC[C@@]21C)=N/S(=O)(=O)c1ccc(C)cc1 |  | IC50 (MCF7; mcf7): Not Active
CCCCCCO/C(C[C@]1(OC)CC[C@H]2[C@@H]3CCc4cc(OC)ccc4[C@H]3CC[C@@]21C)=N/S(=O)(=O)c1ccc(C)cc1 |  | IC50 (MCF7; mcf7): Not Active
CCCCCCCCCCCCO/C(C[C@]1(OC)CC[C@H]2[C@@H]3CCc4cc(OC)ccc4[C@H]3CC[C@@]21C)=N/S(=O)(=O)c1ccc(C)cc1 |  | IC50 (MCF7; mcf7): Not Active
CCCO/C(C[C@]1(OC)CC[C@H]2[C@@H]3CCc4cc(OC)ccc4[C@H]3CC[C@@]21C)=N/S(=O)(=O)c1ccc(C)cc1 | 4.5 | 
CCCCO/C(C[C@]1(OC)CC[C@H]2[C@@H]3CCc4cc(OC)ccc4[C@H]3CC[C@@]21C)=N/S(=O)(=O)c1ccc(C)cc1 | 10.5 | 
CCCO/C(C[C@]1(O)CC[C@H]2[C@@H]3CCc4cc(OC)ccc4[C@H]3CC[C@@]21C)=N/S(=O)(=O)c1ccc(C)cc1 | 15.5 | 
CCO/C(C[C@]1(O)CC[C@H]2[C@@H]3CCc4cc(O)ccc4[C@H]3CC[C@@]21C)=N/S(=O)(=O)c1ccc(C)cc1 | 15.3 | 
